SMILES strings stand for the structures.

From publication PMC3559867, “Metabolites of Ginger Component [6]-Shogaol Remain Bioactive in Cancer Cells and Have Low Toxicity in Normal Cells: Chemical Synthesis and Biological Evaluation” (PLoS ONE, 2013) come the findings set out here.

Test [1] relates to CCD-18Co human normal fibroblast colon cells. Put plainly: MTT cytotoxicity, normal colon cells CCD-18Co. The test is classed as cell-based. The conditions noted are these: 24 h treatment, toxicity to normal cells. On the procedure:
(§1) Cell growth inhibition was determined by a MTT colorimetric assay. Human colon cancer cells HCT-116, human lung cancer cells H-1299, human colon fibroblast cells CCD-18Co, and human lung fibroblast cells IMR-90 were plated in 96-well microtiter plates with 3000 cells/well and allowed to attach for 24 h at 37°C. […] After the cells were cultured for 24 h, the medium was aspirated and cells were treated with 200 µL fresh medium containing 2.41 mmol/L MTT. […] The reading reflected the number of viable cells and was expressed as a percentage of viable cells in the control. Both HCT-116 and H-1299 cells were cultured in McCoy’s 5A medium. CCD-18Co and IMR-90 cells were cultured in Eagle’s modified essential medium (EMEM). All of the above media were supplemented with 10% fetal bovine serum, 1% penicillin/streptomycin, and 1% glutamine, and the cells were kept in a 37°C incubator with 95% humidity and 5% CO2.

Test [2] relates to H-1299 human lung cancer cells. Put plainly: MTT growth inhibition, H-1299. The test is classed as cell-based. Particulars: 24 h treatment, 0 to 80 µM. On the procedure:
as §1

Test [3] deals with IMR-90 human normal lung cells. In words: MTT cytotoxicity, normal lung cells IMR-90. The test is classed as cell-based. Particulars: 24 h treatment, toxicity to normal cells. As to the method: as §1
The test system of test [4] is HCT-116 human colon cancer cells. Put plainly: MTT growth inhibition, HCT-116. The conditions noted are these: 24 h treatment, 0 to 80 µM. The test is classed as cell-based. As to the method:
as §1

The subject of test [5] is H-1299 cells. In words: TUNEL apoptosis assay, H-1299. The test is classed as cell-based, human. Particulars: H-1299, 24 hours of incubation, 20 or 40 µM, versus DMSO; M2 not significant at 20 µM. As to the method:
(§2) HCT-116 and H1299 cells were seeded in 6-well plates at 1.10^5 cells/well and incubated at 37°C in 5% CO2 incubator. After 24 hours, fresh media supplemented with DMSO (control), [6]-shogaol, M2, M6, or M13 metabolites (20 µM or 40 µM) were added to the wells. After 6 or 24 hours incubation at 37°C in 5% CO2 incubator, cells were washed and pre-treated for 15 min at room temperature with a solution of 20 µg/ml proteinase K. Cells were then washed twice with phosphate buffer saline pH 7.4 (PBS) and fixed for 10 min at room temperature using 10% neutral formaldehyde solution. After 2 washes in ddH2O, cells were resuspended in 100 µL ddH2O and applied on silanized microscope slides. Slides were incubated overnight at 37°C, and washed twice with PBS. TUNEL assay was then carried out according to the manufacturer’s protocol. Cells were observed under 400X power using a Zeiss microscope A1 (Thornwood, NY). 10 fields per slide were evaluated, and TUNEL+ cells (with brown coloration in the nucleus) were expressed as a percentage of the total number of cells contained in a field.

Test [6] relates to HCT-116 cells. Put plainly: TUNEL apoptosis assay, HCT-116. The test is classed as cell-based, human. The conditions noted are these: 20 or 40 µM, versus DMSO. As to the method:
as §2

Setting [7] is: HCT-116, 24 hours of incubation.

Turning to `CCCCCC(CC(=O)CCc1ccc(O)c(OC)c1)SC[C@H](NC(C)=O)C(=O)O` (stereo partly drawn) [M5, 5-N-acetylcysteinyl-[6]-shogaol], the IC50 (as a rule, the midpoint of a concentration-inhibition curve) in test [1] was over 100 µM; in test [2] it was 54.3 µM; in test [2] (Homo sapiens, NCI-H1299, 24 h), 72.6 µM; in test [3] it was over 100 µM; in test [4], 54.3 µM.
In the case of `CCCCCC(CC(=O)CCc1ccc(O)c(OC)c1)SCC(N)C(=O)O` (stereo not drawn) [M2, 5-cysteinyl-[6]-shogaol], the IC50 in test [1] was determined as 99.2 µM; in test [2], 24.4 µM; in test [2] (Homo sapiens, NCI-H1299, 24 h) it was 25.8 µM; in test [3] it was 98.3 µM; in test [4], 24.4 µM. Further, the “induction of apoptosis (TUNEL positive cells)” value (shortened to “induction of apoptosis”) in test [5] is on record as “Significant apoptosis”; in test [6] (HCT-116, 6 hours of incubation), “significantly higher levels of apoptosis”; in test [6] (setting [7]), “Significant apoptosis”.
Consider `CCCCC/C=C/C(=O)CCc1ccc(O)c(OC)c1` [[6]-shogaol], for which the IC50 in test [1] stood at 43.9 µM; in test [2] (Homo sapiens, NCI-H1299, 24 h), 17.9 µM; in test [3] it was 36.6 µM; in test [4], 18.2 µM. For the same compound, the “induction of apoptosis” value was “significantly superior to that of both M2 and M13” in test [5]; “significantly higher levels of apoptosis” in test [6] (HCT-116, 6 hours of incubation); “significantly superior to that of both M2 and M13” in test [6] (setting [7]).
In the case of `CCCCC[C@@H](CC(=O)CCc1ccc(O)c(OC)c1)SC[C@H](NC(=O)CC[C@H](N)C(=O)O)C(=O)NCC(=O)O` [M13-1], the IC50 in test [2] (Homo sapiens, NCI-H1299, 24 h) is 74.4 µM; in test [4], 71.2 µM. Besides, in test [6] (HCT-116, 6 hours of incubation), the “induction of apoptosis” value is “higher level of apoptosis”.
Consider `CCCCC[C@H](CC(=O)CCc1ccc(O)c(OC)c1)SC[C@H](NC(=O)CC[C@H](N)C(=O)O)C(=O)NCC(=O)O` [M13-2], for which the IC50 in test [2] (Homo sapiens, NCI-H1299, 24 h) came out at 63.8 µM; in test [4], 54.9 µM. For the same compound, the “induction of apoptosis” value in test [6] (HCT-116, 6 hours of incubation) was “higher level of apoptosis”.
As to `CCCCCC(CC(O)CCc1ccc(O)c(OC)c1)SCC(N)C(=O)O` (stereo not drawn) [M1, 5-cysteinyl-M6], the IC50 was over 100 µM in test [1]; over 100 µM in test [2] (Homo sapiens, NCI-H1299, 24 h); over 100 µM in test [3]; over 100 µM in test [4].
Turning to `CCCCCCCC(=O)CCc1ccc(O)c(OC)c1` [M11, 1-(4'-hydroxy-3'-methoxyphenyl)-decan-3-one], the IC50 in test [1] is over 100 µM; in test [2] (Homo sapiens, NCI-H1299, 24 h), 66.5 µM; in test [3], over 100 µM; in test [4], 84 µM.
Consider `CCCCCC(CC(=O)CCc1ccc(O)c(OC)c1)OC` (stereo not drawn) [M7, 5-methoxy-1-(4'-hydroxy-3'-methoxyphenyl)-decan-3-one], for which the IC50 was over 100 µM in test [1]; over 100 µM in test [2] (Homo sapiens, NCI-H1299, 24 h); over 100 µM in test [3]; over 100 µM in test [4].
For the compound `CCCCCCCC(=O)CCc1ccc(O)c(O)c1` [M8, 1-(3',4'-dihydroxyphenyl)-decan-3-one], the half-maximal inhibitory concentration (IC50) was over 100 µM in test [1]; over 100 µM in test [2] (Homo sapiens, NCI-H1299, 24 h); over 100 µM in test [3]; 58.8 µM in test [4].
As to `CCCCCC(CC(O)CCc1ccc(O)c(OC)c1)SCC(NC(C)=O)C(=O)O` (stereo not drawn) [M4, 5-N-acetylcysteinyl-M6], the IC50 is over 100 µM in test [1]; over 100 µM in test [2] (Homo sapiens, NCI-H1299, 24 h); over 100 µM in test [3]; over 100 µM in test [4].
In the case of `CCCCCC(CC(O)CCc1ccc(O)c(OC)c1)SC` (stereo not drawn) [M12, 5-methylthio-1-(4'-Hydroxy-3'-methoxyphenyl)-decan-3-ol], the IC50 in test [1] was over 100 µM; in test [2] (Homo sapiens, NCI-H1299, 24 h) it was 69.9 µM; in test [3] it was over 100 µM; in test [4], over 100 µM.
For the compound `CCCCCC(CC(=O)CCc1ccc(O)c(OC)c1)SC` (stereo not drawn) [M10, 5-methylthio-1-(4'-hydroxy-3'-methoxyphenyl)-decan-3-one], the concentration for half-maximal inhibition (IC50) was over 100 µM in test [1]; 60.6 µM in test [2] (Homo sapiens, NCI-H1299, 24 h); over 100 µM in test [3]; 78.2 µM in test [4].
For the compound `CCCCCCCC(O)CCc1ccc(O)c(OC)c1` (stereo not drawn) [M9, 1-(4'-hydroxy-3'-methoxyphenyl)-decan-3-ol], the IC50 in test [1] is over 100 µM; in test [2] (Homo sapiens, NCI-H1299, 24 h), 82.5 µM; in test [3], over 100 µM; in test [4] it was 82.2 µM.
For `CCCCCC=CC(O)CCc1ccc(O)c(OC)c1` (stereo not drawn) [M6, 1-(4'-hydroxy-3'-methoxyphenyl)-4-decen-3-ol], the IC50 is over 100 µM in test [1]; 68.8 µM in test [2]; 61.3 µM in test [2] (Homo sapiens, NCI-H1299, 24 h); over 100 µM in test [3]; 68.8 µM in test [4]. In addition, the “induction of apoptosis” value in test [5] and in test [6] (setting [7]) was “did not display any apoptotic effect” throughout.
Turning to `CCCCCC(CC(=O)CCc1ccc(O)c(OC)c1)SCC(NC(=O)CCC(N)C(=O)O)C(=O)NCC(=O)O` (stereo not drawn) [M13, 5-glutathiol-[6]-shogaol], the IC50 in test [1] amounted to 75.5 µM; in test [2] (Homo sapiens, NCI-H1299, 24 h), 47.8 µM; in test [3], 57.5 µM; in test [4] it was 45.5 µM. Besides, the “induction of apoptosis” value in test [5] was “Significant apoptosis”; in test [6] (HCT-116, 6 hours of incubation), “significantly higher levels of apoptosis”; in test [6] (setting [7]), “Significant apoptosis”.
